Data: patent US10570168B2, “2′ and/or 5′ amino-acid ester phosphoramidate 3′-deoxy adenosine derivatives as anti- cancer compounds” (NuCana plc, priority 2014, dated 2020)

Columns and labels:
HL-60 (TdT negative) = assay: ATP (ViaLight plus) cytotoxicity assay; type: cell-based, Human; conditions: Homo sapiens, HL-60, 72 h
Description: (§1) Certain compounds of the invention were subjected to further studies to test the cytotoxic activity of certain compounds of the invention and also to measure their activity against 4 haematological cancer cell lines • TdT positive CEM (Human ALL) • TdT negative K562 (Human CML) • TdT negative H1-60 (Human ANLL) • RL (CRL-2261) non-HD lymphoma • The concentrations of the active metabolite dATP (Cordycepin triphosphate) in these cell lines was also measured. • The cytotoxic activity and the intracellular 3′-dATP concentrations were also studied in the presence of hENT1, Adenosine Kinase (AK) and Adenosine Deaminase pharmacological inhibitors in CEM and RL cancer cell lines. Said inhibitors that mimic known cancer resistance mechanisms. Methods Cell Culture
(§2) HL-60 (ATCC® CCL-240™), K562 (ATCC® CCL-243™), CCRF-CEM (ATCC® CRM-CCL-119™) and RL (ATCC® CRL-2261™) leukaemia cell lines, obtained from the American Type Culture Collection (ATCC), Middlesex. HL-60 and K562 cell lines are deoxynucleotidyl transferase-negative (TdT-ve), whereas CCRF-CEM cell line is TdT+ve.
(§3) HL-60, K562, CCRF-CEM and RL cell lines were cultured in RPMI-1640 medium (Sigma Aldrich, UK), which were supplemented with 10% Fetal Bovine Serum (FBS) (PAA Laboratories), 1% amphotericin B (5.5 ml) and 1% penicillin/streptomycin (5.5 ml) (PAA Laboratories) and grown in flasks at 37° C. incubator with 5% CO2.
(§4) The amount of ATP was used as a measurement of cell number and cell viability. ATP ViaLight™ plus assay kit (Lonza, USA: Product No. LT07-121) to detect ATP in cells treated in luminescence compatible 96 well plates (initial concentration of cells was 1×10^4 cells/well) with cordycepin and ProTides at concentrations of: 0, 0.1, 0.5, 1, 5 and 10 μM, followed by incubation for 72 hours at 37° C. incubator with 5% CO2. For inhibitor studies, 10 μM of NBTI or 1 μM EHNA or A-134974 was added and left for 5 minutes before adding the drugs (see section 5 for inhibitor details).
(§5) After incubation, 50 μl of cell lysis reagent was added to the 96 well plates to release the intracellular ATP, followed by 100 μl of ATP monitoring reagent (AMR). The luminescent values of each well were determined using FLUOstar OPTIMA microplate reader (BMG Labtech) which convert ATP into light by using luciferase enzyme. Therefore, the amount of luminescence produced was directly proportional to the amount of ATP.
(§6) The dose-response curves of cytotoxicity of the drugs was determined using non-linear regression analysis of percentage cell viability versus concentration and EC50 values were obtained. The intracellular assay was conducted in five replicates for each condition. Intracellular assay was determined using paired t test (two-tailed) analysis of 3′ATP/ATP concentration and p-values were obtained. For all the analysis, Prism Software program (GraphPad Software) was used and Microsoft Powerpoint® 2013 was used to plot the results.

K562 (TdT negative) = assay: ATP (ViaLight plus) cytotoxicity assay; type: cell-based, Human; conditions: Homo sapiens, K562, 72 h
Description: as §1, §2, §3, §4, §5, §6

HL-60 [1] = assay: CellTiterGlo viability assay, initial screening; type: cell-based; conditions: Homo sapiens, HL-60, 72 h, read-out: IC50 (relative IC50)
Description: (§7) In vitro viability assays were performed to assess the effects of compounds on cell viability in 7 selected cell lines over 72 hr using the CellTiterGlo (CTG, Promega-G7573) assay. The tests were performed in duplicates with treatment of compounds at 9 points, 3.16 folds titration in 96 well plates over ˜72 hr. The compound starting concentrations were […]. Cell viability assay using CellTiterGlo in 96-well plate were performed. The compound treatment was 72 hrs, under standard growth conditions, and in duplicate. Compounds were dissolved to 40 mM with thawed […]. Compounds were serially diluted at 3.16 fold in thawed DMSO, and warmed to 37° C. before being dissolved in media (2 μl+200 μl). After compounds were dissolved in media (media was also warmed to 37° C.). Media containing compounds were warmed to 37° C. in incubator and then compounds in media were added to cell plates (50 μl+50 μl), in duplicates. The compounds final concentrations were from […] to 19.9 nM. All compound solubilities were checked and recorded again, then the plates were transferred to CO2 tissue culture incubator immediately and incubated for 3 days. DMSO final concentration is 0.5%.

HepG2 [2] = assay: CellTiterGlo viability assay, initial screening; type: cell-based; conditions: Homo sapiens, HepG2, 72 h, read-out: IC50 (relative IC50)
Description: as §7

MOLT-4 = assay: CellTiterGlo viability assay, initial screening; type: cell-based; conditions: Homo sapiens, MOLT-4, 72 h, read-out: IC50 (relative IC50)
Description: as §7

K562 [3] = assay: CellTiterGlo viability assay, initial screening; type: cell-based; conditions: Homo sapiens, K562, 72 h, read-out: IC50 (relative IC50)
Description: as §7

CCRF-CEM = assay: CellTiterGlo viability assay, initial screening; type: cell-based; conditions: Homo sapiens, 72 h, read-out: IC50 (relative IC50)
Description: as §7

KG-1 [4] = assay: CellTiterGlo viability assay, initial screening; type: cell-based; conditions: Homo sapiens, KG-1, 72 h, read-out: IC50 (relative IC50)
Description: as §7

MCF-7 = assay: CellTiterGlo viability assay, initial screening; type: cell-based; conditions: Homo sapiens, MCF7, 72 h, read-out: IC50 (relative IC50)
Description: as §7

[5] = test system: CCRF-CEM (TdT positive CEM); assay: ATP (ViaLight plus) cytotoxicity assay; type: cell-based, Human; conditions: CEM (TdT+ve)
Description: as §1, §2, §3, §4, §5
(§8) Cell lines were treated in the same way as described above but before treatment with drugs, a number of inhibitors were added: • 1) Nitrobenzylthioinosine (NBTI) (Sigma-Aldrich, St. Louis, Mo., product # N2255) blocks nucleoside transporters • 2) EHNA hydrochloride (Sigma-Aldrich, St. Louis, Mo., product # E114) blocks adenosine deaminase • 3) Adenosine kinase inhibitor A-134974 dihydrochloride hydrate (Sigma-Aldrich, St. Louis, Mo., product # A2846): blocks adenosine kinase
as §6

RL (CRL-2261) = assay: ATP (ViaLight plus) cytotoxicity assay; type: cell-based; conditions: 72 h, CRL (RL, CRL-2261)
Description: as §1, §2, §3, §4, §5, §8, §6

HEL92.1.7 = assay: Solid tumour and haematological malignancy assay (CellTiterGlo); type: cell-based; conditions: Homo sapiens, HEL 92.1.7, 72 h; for IC50: read-out: IC50 (absolute IC50); for Emax: read-out: MI %
Description: (§9) In vitro viability assay were performed to assess the effects of compounds on cell viability in selected cell lines over 72 hr using the CellTiterGlo (CTG, Promega-G7573) assay. […] Cell viability assay using CellTiterGlo in 96-well plate were performed. Compound treatment 72 hrs, standard growth conditions, duplicates. Compounds were dissolved to 40 mM with thawed 100%. […] After compounds were dissolved in media, media containing compounds were warmed to 37° C. in incubator and then compounds in media were added to cell plates ([…]) in duplicates. […] All compound solubilities were checked and recorded again, then the plates were transferred to CO2 tissue culture incubator immediately and incubated for 3 days. DMSO final concentration is 0.5%.

HL-60 [6] = assay: as above; type: cell-based; conditions: Homo sapiens, HL-60, 72 h; for IC50: read-out: IC50 (absolute IC50); for Emax: read-out: MI %
Description: as §9

HepG2 [7] = assay: as above; type: cell-based; conditions: Homo sapiens, HepG2, 72 h; for IC50: read-out: IC50 (absolute IC50); for Emax: read-out: MI %
Description: as §9

MCF7 = assay: as above; type: cell-based; conditions: Homo sapiens, MCF7, 72 h; for IC50: read-out: IC50 (absolute IC50); for Emax: read-out: MI %
Description: as §9

CCRFCEM = assay: as above; type: cell-based; conditions: Homo sapiens, CCRF-CEM, 72 h; for IC50: read-out: IC50 (absolute IC50); for Emax: read-out: MI %
Description: as §9

K562 [8] = assay: as above; type: cell-based; conditions: Homo sapiens, K562, 72 h; for IC50: read-out: IC50 (absolute IC50); for Emax: read-out: MI %
Description: as §9

MiaPaCa-2 = assay: as above; type: cell-based; conditions: Homo sapiens, MIA PaCa-2, 72 h; for IC50: read-out: IC50 (absolute IC50); for Emax: read-out: MI %
Description: as §9

KG-1 [9] = assay: as above; type: cell-based; conditions: Homo sapiens, KG-1, 72 h; for IC50: read-out: IC50 (absolute IC50); for Emax: read-out: MI %
Description: as §9

HT29 = assay: as above; type: cell-based; conditions: Homo sapiens, HT-29, 72 h; for IC50: read-out: IC50 (absolute IC50); for Emax: read-out: MI %
Description: as §9

[10] = test system: leukaemic stem cell (LSC) compartment within the KG1a cell line; assay: Immunophenotypic identification of the leukaemic stem cell compartment; type: cell-based; conditions: 72 h; for LSC targeting compared with the parent nucleoside: for compound A at 1 mM and above
Description: KG1a cells were cultured for 72 h in the presence of a wide range of concentrations of each compound assayed. Cells were then harvested and labelled with a cocktail of anti-lineage antibodies (PE-cy7), anti-CD34 (FITC), anti-CD38 (PE) and anti-CD123 (PERCP cy5). The sub-population expressing a LSC phenotype were subsequently identified and were expressed as a percentage of all viable cells left in the culture. The percentages of stem cells remaining were then plotted on a dose-response graph and the effects of the compounds were compared with each other, and with the parent nucleoside.
The data obtained in these experiments were evaluated using one way ANOVA. All data was confirmed as Gaussian or a Gaussian approximation using the omnibus K2 test. LD50 values were calculated from the non-linear regression and line of best-fit analysis of the sigmoidal dose-response curves. All statistical analyses were performed using Graphpad Prism 6.0 software (Graphpad Software Inc., San Diego, Calif.).

Structure (SMILES)	IC50 (HEL92.1.7)	Emax (HEL92.1.7)	IC50 (HL-60 [6])	Emax (HL-60 [6])	IC50 (HepG2 [7])	Emax (HepG2 [7])	IC50 (MCF7)	Emax (MCF7)	IC50 (CCRFCEM)	Emax (CCRFCEM)	IC50 (K562 [8])	Emax (K562 [8])	IC50 (MiaPaCa-2)	Emax (MiaPaCa-2)	IC50 (KG-1 [9])	Emax (KG-1 [9])	IC50 (HT29)	Emax (HT29)	LSC targeting compared with the parent nucleoside [10]	other results
CCCCCOC(=O)[C@H](CC(C)C)NP(=O)(OC[C@@H]1C[C@@H](O)[C@H](n2cnc3c(N)ncnc32)O1)Oc1cccc2ccccc12 (mixture of isomers) [D, (2S)-pentyl 2-(((((2S,4R,5R)-5-(6-amino-9H-purin-9-yl)-4-hydroxytetrahydrofuran-2-yl)methoxy)(naphthalen-1-yloxy)phosphoryl)amino)-4-methylpentanoate]																				IC50 (HL-60 (TdT negative)): 5.4 µM; IC50 (K562 (TdT negative)): 4.2 µM; IC50 (HL-60 [1]): 5 to 15 µM; IC50 (HepG2 [2]): 5 to 15 µM; IC50 (MOLT-4): 0.1 to 5 µM; IC50 (K562 [3]): 5 to 15 µM; IC50 (CCRF-CEM): 5 to 15 µM; IC50 (KG-1 [4]): 5 to 15 µM; IC50 (MCF-7): 0.1 to 5 µM; (FD) fold difference compared to Cordycepin = Cordycepin IC50/ProTide IC50 [5]: (3); IC50 ([5]; Homo sapiens, CCRF-CEM, 72 h, 72 hours): 6.1 µM; IC50 (RL (CRL-2261)): 4.8 µM
C[C@H](NP(=O)(OC[C@@H]1C[C@@H](O)[C@H](n2cnc3c(N)nc(F)nc32)O1)Oc1ccccc1)C(=O)OCc1ccccc1 (mixture of isomers) [P, (2S)-benzyl 2-(((((2S,4R,5R)-5-(6-amino-2-fluoro-9H-purin-9-yl)-4-hydroxytetrahydrofuran-2-yl)methoxy)(phenoxy)phosphoryl)amino)propanoate]	0.1 to 5 µM	99%	0.1 to 5 µM	100%	5 to 15 µM	74%	0.1 to 5 µM	95%	0.1 to 5 µM	99%	0.1 to 5 µM	97%	0.1 to 5 µM	98%	0.1 to 5 µM	97%	5 to 15 µM	87%	significantly improved when compared with the parental nucleoside	
C[C@H](NP(=O)(OC[C@@H]1C[C@H](O)[C@H](n2cnc3c(N)nc(F)nc32)O1)Oc1cccc2ccccc12)C(=O)OCc1ccccc1 (stereo partly drawn) [Compound O, 2-Fluoro-3′-deoxyadenosine-5′-O-[1-naphthyl(benzyloxy-L-alaninyl)] phosphate]	0.1 to 5 µM	100%	0.1 to 5 µM	101%	5 to 15 µM	83%	0.1 to 5 µM	95%	0.1 to 5 µM	99%	0.1 to 5 µM	99%	0.1 to 5 µM	100%	5 to 15 µM	99%	15 to 100 µM	84%	not significantly different to 2-F-Cordycepin	reduction of LSCs as a proportion of the cancer cells in culture (ability to target LSCs) ([10]; Lin−/CD34+/CD38−/CD123+): able to bring about a reduction in the proportion of LSCs
CCCCCOC(=O)[C@H](CC(C)C)NP(=O)(OC[C@@H]1C[C@H](O)[C@H](n2cnc3c(N)nc(F)nc32)O1)Oc1cccc2ccccc12 (stereo partly drawn) [Compound Q, 2-Fluoro-3′-deoxyadenosine-5′-O-[1-naphthyl(1-pentyloxy-L-leucinyl)] phosphate]	0.1 to 5 µM	99%	0.1 to 5 µM	99%	0.1 to 5 µM	94%	0.1 to 5 µM	99%	0.1 to 5 µM	101%	0.1 to 5 µM	100%	0.1 to 5 µM	100%	5 to 15 µM	103%	15 to 100 µM	88%	significantly improved when compared with the parental nucleoside	
